Legend:
Amniotic cells = assay: Slide in situ hybridization, effect of DMSO (Example 1), amniotic cells, Y probe; type: cell-based, human; conditions: assay solution HC + 10% DMSO
Text: (§1) The Y probe (also referred to as the HYR probe) was a collection of oligonucleotides specific for human Y chromosome α-satellite DNA repeated sequences; where the probe was to be detected under a fluorescent microscope, it was labeled at its 5' end, via an Aminolink linker molecule (aminohexyl, from Applied Biosystems, Inc.), to a Texas Red Moiety.
Amniotic cells were obtained by standard amniocentesis procedure.
(§2) Slide in situ Cell Preparation and Hybridization Protocol
(§3) 1) Cells were suspended in a fixative (3 vol ethanol plus 1 vol methanol) and transferred to glass slides by centrifugation using a Cytospin apparatus.
(§4) 2) The assay solution (consisting of the hybridization cocktail HC alone or mixed with a compound or compounds being tested as an enhancer) with the DNA probe (25 ul) was placed over the cells and covered with a coverslip.
(§5) 3) The slide was heated at 90° C. for 5 minutes for DNA denaturation, then incubated at 46° C. for 30 minutes for hybridization.
(§6) 4) Cells were washed once with the wash solution #1, which was equilibrated at 42° C. Then cells were washed ten times with wash solution #2, which was equilibrated at 42° C.
(§7) 5) Mounting solution (50% glycerol (v/v) in 1×PBS plus the nuclear stain Hoechst, (#33258; 1 ug/ml) was placed on the cells and covered with a coverslip. […]

[1] = system: WBC cells (white blood cells); assay: Slide in situ hybridization, effect of DMSO (Example 1), WBC cells, Y probe; type: cell-based, human; conditions: assay solution HC + 10% DMSO
Text: as §1
WBC cells (white blood cells) were obtained from a healthy human.
as §2, §3, §4, §5, §6, §7

Hepg 2 cells = assay: Slide in situ hybridization, DMSO plus one additional compound (Example 2), HYR probe; type: cell-based, human; conditions: for Fluorescent signal (Scale of 1 to 4): 10% (v/v) additional compound with 9% DMSO, slide rating x 0.5, water control = 2, average of four experiments
Method: as §2, §3, §4, §5, §6
5) Mounting solution (50% glycerol (v/v) in 1×PBS plus the nuclear stain Hoechst, (#33258; 1 ug/ml) was placed on the cells and covered with a coverslip.
6) The hybridization signal was observed under an Olympus BH10 microscope with fluorescent capabilities using a rhodamine derivative filters (excitation wavelength of 567 nm, emission wavelength of 584 nm).
The inclusion of DMSO in an in situ assay solution increased the permeation of the nucleic acid probes into the cells and gave hybridization signal in over 95% of the cells. In this Example, we show the effect of adding, in addition to DMSO, 10 percent (v/v) of an additional compound to the assay solution. The additional compounds added were: squalane (an aliphatic alkane), dodecyl alcohol (an alcohol), beta-cyclodextrin (a sugar), isopropyl palmitate (a fatty acid ester), 1,2, propanediol (an alcohol), pyrrolidinone (a lactam) and hexamethyldisiloxane (an organic silane).
In this Example, the hybridization cocktail consisted of nine volumes of HC-DMSO plus one volume of an additional compound. In the control sample, one volume of water was added instead of one volume of additional compound. As a result, in all samples, the concentration of DMSO in the cocktail was 9 percent (v/v).
The Slide In Situ Cell Preparation and Hybridization protocol was followed. The cells used were Hepg 2 cells. The probe used was an HYR probe specific for human Y chromosome α-satellite DNA repeated sequences; at its 5' end, via an Aminolink linker molecule, the probe was linked to a Texas Red moiety. A signal intensity of 4 was assigned to the slide in which the assay solution was HC plus 10% DMSO (control slide) and all other slides were rated 1, 2, 3 or 4 in comparison to the control slide, depending on whether the intensity was 1, 2, 3, or 4 times that of the control slide, respectively.
The results are an average of four independent experiments.

Hepg2 cells = assay: Slide in situ hybridization, effect of DMSO (Example 1), Hepg2 cells, Y probe; type: cell-based, human; conditions: assay solution HC + 10% DMSO
Text: Hepg2 cells were a human cell line (American Type Culture Collection number, ATCC-HB8065).
In this Example, the slide in situ cell preparation and hybridization protocol was followed.

Hela cells = assay: Liquid in situ hybridization with flow cytometry, DMSO plus additional compound (Example 4), 28S RNA and NR probes; type: cell-based; conditions: for 28S RNA Probe, mean LFL1: FITC 28S RNA probe, water control 6.070, average of four experiments; for NR Probe, mean LFL1: FITC NR probe (non-specific binding and autofluorescence), water control 0.137
Text: (§8) A Coulter Profile II flow cytometer was used for flow cytometry. With FITC as the probe dye, the filter for LFL3 was a 635 nm long pass filter and the filter for LFL1 was a 540 bp filter; the excitation wavelength was 488 nm. PMT1 and PMT3 settings were adjusted as required. A typical useful setting when fluorescein is the dye moiety is to have a PMT1 setting of 1100, a PMT3 setting of 900, and color compensation (PMT1, PMT3) of 15 percent.
(§9) Liquid in Situ Cell Preparation and Hybridization Protocol
(§10) 1. Cells were fixed in solution F, then resuspended in 2x SSC.
(§11) 2. The cells were spun out of solution and resuspended in an assay solution (consisting of the hybridization cocktail HC alone or in combination with a compound or compounds being tested as an enhancer.)
(§12) 3. After 30 min. at 42° C., the cells were washed in wash solution #1 preheated to 42° C. by centrifuging them out of the assay solution.
(§13) 4. Cells were next washed in wash solution #2 preheated to 42° C.
(§14) 5. Cells were resuspended in a 1X PBS solution containing 0.002% trypan blue as a counterstain.
(§15) 6. Cells were run on a flow cytometer and a "Count vs. LFL1" histogram was generated. ("Count" refers to cell count.) This histogram was used as the basis for determining the mean LFL1.
The effect on probe signal intensity of adding, in addition to DMSO, additional compounds to the assay solution was determined in an in situ liquid hybridization assay. The data was analyzed by flow cytometry.
The Liquid In Situ Cell Preparation and Hybridization Protocol was followed. The cells used were Hela cells. The probes used were a 28S RNA probe (SEQ ID NO: 1) and an NR probe.
The 28S RNA probe (SEQ ID NO: 1) is a target-specific probe specific for ribosomal RNA fluorescence obtained with it represents the sum of fluorescence from target-bound probe, non-specifically bound probe and autofluorescence from cellular molecules. The NR probe (SEQ ID NO: 2) is specific for a plant nucleic acid sequence and, in the current Example, the fluorescence obtained with it represent the sum of fluorescence from non-specifically bound probe and autofluorescence.
(§16) In this experiment, the hybridization cocktail consisted of nine volumes of HC-DMSO plus one volume of additional compound. In the control sample, one volume of water replaced the one volume of additional compound. As a result, in all samples, the concentration of DMSO was 9 percent (v/v).
The ratio, 28S/NR, is the ratio of the mean LFL1 observed with the 28S RNA probe (SEQ ID NO: 1) to the mean LFL1 observed with the NR probe (SEQ ID NO: 2). The results in the "28S RNA probe" and "NR probe" columns give the mean LFL1 observed with the 28S RNA and NR probes, respectively (SEQ ID NO: 1 and SEQ ID NO: 2, respectively).

[2] = system: Human female white blood cells (karyotype XX); assay: Signal enhancers in the mounting solution after in situ hybridization (Example 6), HXR probes, fluorescent microscope; type: cell-based; conditions: not further described
[3] = system: Human female white blood cells (karyotype XX); assay: as above; type: cell-based; conditions: one volume compound plus 9 volumes mounting solution; rhodamine HXR probes; water control = 1
Method: After the in situ hybridization step, the cells were washed and then modified mounting solution was added and cells were observed under the microscope for fluorescence signal. Modified mounting solution was 9 volumes of mounting solution and one volume of additional compound, which was the compound being tested for its ability to be a signal enhancer. Mounting solution consisted of 0.1% 1,4 diphenylamine (antifade) in 50% glycerol (v/v), and nuclear stain Hoechst (#33258; 1 ug/ml).
Human female white blood cells (karyotype XX) were hybridized at 85° C. for 15 minutes with female chromosome HXR probes labelled with a rhodamine fluor. Cells were washed with wash buffers #1 and #2, and then suspended in a modified mounting solution. The additional compound in the modified mounting solution was varied; as a control, water was used as the additional compound. The signal intensity was observed under the fluorescent microscope.

α-satellite DNA = assay: Liquid in situ hybridization with flow cytometry, DMSO plus squalane plus additional compound (Example 5), α-satellite DNA and NR probes; type: cell-based
Text: as §8, §9, §10, §11, §12, §13, §14, §15
The Liquid In Situ Cell Preparation and Hybridization Protocol was followed.
The "α-satellite" DNA probe is a target specific probe specific α-satellite DNA. Fluorescence obtained with it represents the sum of fluorescence from target-bound probe, non-specifically bound probe and autofluorescence from cellular molecules.
The effect of a combination of DMSO and squalane on the probe signal was measured as was that combination further enhanced with a third compound.
In this Example, in all but two cases, the hybridization cocktail consisted of 9 volumes of HC-DMSO, a half volume of squalane, and a half volume of an additional compound. In one case, the additional compound was replaced by water, so that the hybridization compound consisted of 9 volumes of HC-DMSO, a half volume of squalane, and a half volume of water. In the control sample, the cocktail consisted of nine volumes of HC-DMSO and one volume of water. As a result, in all samples, there was 9 percent DMSO (v/v). When present, squalane was present at 5 percent. When present, the additional compound was present at 5%.
The ratio, α-SAT/NR, is the ratio of the mean LFL1 for the α-satellite DNA probe ([…]) to the mean LFL1 for the NR probe.

[4] = Precipitation of additional compound from the hybridization cocktail (Example 4); type: physicochemical; conditions: 10 percent in hybridization cocktail (HC-DMSO)
Text: as §16

[5] = 10% additional compound with 9% DMSO

Structure (SMILES) | Fluorescent Signal intensity (Scale of 1 to 4) (Amniotic cells) | Fluorescent Signal intensity (Scale of 1 to 4) [1] | Cells giving hybridization signal (Hepg 2 cells; DMSO included in in situ assay solution, cells not specified (opening statement of Example 2)) | Fluorescent Signal intensity (Scale of 1 to 4) (Hepg2 cells) | Optimal DMSO concentration for signal brightness (Hela cells; DMSO alone, nine percent) | Effect on signal in an earlier experiment [2] | Fluorescent signal (Scale of 1 to 4) (Hepg 2 cells) | Signal Intensity Scale of 1 to 4 [3] | 28S RNA Probe, mean LFL1 (Hela cells; [5]) | NR Probe, mean LFL1 (Hela cells; [5]) | Ratio 28S RNA/NR (ratio of mean LFL1) (Hela cells; 10% additional compound with 9% DMSO, water control 44) | NR Probe, mean LFL1 (α-satellite DNA; 5% squalane with 9% DMSO, water instead of additional compound, DMSO-only control 0.175) | α-SAT Probe, mean LFL1 (α-satellite DNA; 5% squalane with 9% DMSO, water instead of additional compound, DMSO-only control 3.829) | Ratio α-SAT/NR (ratio of mean LFL1) (α-satellite DNA; 5% squalane with 9% DMSO, water instead of additional compound, DMSO-only control 22) | Increase of DNA probe signal intensity compared to DMSO alone (α-satellite DNA; squalane plus DMSO) [fold] | Precipitation from solution [4] | Signal intensity after precipitation (biphasic mixture) (Hela cells; 10 percent compound with 9% DMSO)
C[S+](C)[O-] [DMSO, dimethyl sulfoxide] | 4 | 4 | over 95% | 4 | at or close to the optimal DMSO concentration for signal brightness | – | – | – | – | – | – | – | – | – | – | – | –
CCCCCCCCCCCCO [dodecyl alcohol] | – | – | – | – | – | decrease in signal | 2 | 4 | 4.804 | 0.142 | 34 | – | – | – | – | – | –
CC(C)CCCC(C)CCCC(C)CCCCC(C)CCCC(C)CCCC(C)C (stereo not drawn) [squalane] | – | – | – | – | – | – | 2 | 3 | 0.611 | 0.123 | – | 0.125 | 4.604 | 37 | 1.68 | precipitation from solution | markedly decreased

Source: patent publication US5521061A, “Enhancement of probe signal in nucleic acid-mediated in-situ hybridization studies” (Aprogenex, Inc., priority 1992, dated 1996)
